In US9944602B2, “Piperidinone herbicides” (E. I. DU PONT DE NEMOURS AND COMPANY, priority 2014, dated 2018):

Experiments:
Format in all cases: in vivo
[1] = test system: sedge, umbrella (small-flower umbrella sedge, Cyperus difformis); assay: Test B flooded paddy test sedge, umbrella; conditions: Table B, Flood, 250 g ai/ha, scale 0 to 100
How it was run: (§1)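 Once seedlings reached two leaves, pots were flooded 3 cm deep and treated via the paddy water, which remained at that level. Evaluation was visual, against controls, after 13 to 15 d under greenhouse conditions.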

[2] = test system: rice (Oryza sativa); assay: Test B flooded paddy test rice; conditions: Table B, Flood, 250 g ai/ha, scale 0 to 100
How it was run: as §1

[3] = test system: morningglory (Ipomoea spp.); assay: Test A postemergence morningglory; conditions: 0 to 100 scale, 0 is no effect, 100 is complete control
Text: (§2) Seeds of plant species selected from barnyardgrass (Echinochloa crus-galli), kochia (Kochia scoparia), ragweed (common ragweed, Ambrosia elatior), ryegrass, Italian (Italian ryegrass, Lolium multiflorum), crabgrass, large (large crabgrass, Digitaria sanguinalis), foxtail, giant (giant foxtail, Setaria faberii), morningglory (Ipomoea spp.), pigweed (Amaranthus retroflexus), velvetleaf (Abutilon theophrasti), wheat (Triticum aestivum), and corn (Zea mays) were planted into a blend of loam soil and sand and treated preemergence with a directed soil spray using test chemicals formulated in a non-phytotoxic solvent mixture which included a surfactant.
(§3) At the same time, plants selected from these crop and weed species and also blackgrass (Alopecurus myosuroides), and galium (catchweed bedstraw, Galium aparine) were planted in pots containing the same blend of loam soil and sand and treated with postemergence applications of test chemicals formulated in the same manner. Plants ranged in height from 2 to 10 cm and were in the one- to two-leaf stage for the postemergence treatment. Treated plants and untreated controls were maintained in a greenhouse for approximately 10 d, after which time all treated plants were compared to untreated controls and visually evaluated for injury. Plant response ratings, summarized in Table A, are based on a 0 to 100 scale where 0 is no effect and 100 is complete control. A dash (-) response means no test result.

[4] = test system: crabgrass, large (large crabgrass, Digitaria sanguinalis); assay: Test A postemergence crabgrass, large; conditions: 0 to 100 scale, 0 is no effect, 100 is complete control
Text: as §2, §3

[5] = test system: ducksalad (Heteranthera limosa); assay: Test B flooded paddy test ducksalad; conditions: Table B, Flood, 250 g ai/ha, scale 0 to 100
How it was run: as §1

[6] = test system: wheat (Triticum aestivum); assay: Test A postemergence wheat; conditions: 0 to 100 scale, 0 is no effect, 100 is complete control
How it was run: (§4)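 Compounds in non-phytotoxic solvent with surfactant, applied preemergence as directed soil spray on seeds in loam–sand blend, or postemergence to plants 2–10 cm tall at one- to two-leaf stage. Greenhouse ~10 d, then visual injury versus untreated controls, 0 (no effect) to 100 (complete control).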

[7] = test system: wheat (Triticum aestivum); assay: Test A preemergence wheat; conditions: 0 to 100 scale, 0 no effect, 100 complete control
Text: as §2, §3

[8] = test system: morningglory (Ipomoea spp.); assay: Test A preemergence morningglory; conditions: 0 to 100 scale, 0 no effect, 100 complete control
Text: as §2, §3

[9] = test system: barnyardgrass (Echinochloa crus-galli); assay: Test B flooded paddy test barnyardgrass; conditions: Table B, Flood, 250 g ai/ha, scale 0 to 100
How it was run: as §1

[10] = test system: velvetleaf (Abutilon theophrasti); assay: Test A postemergence velvetleaf; conditions: 0 to 100 scale, 0 is no effect, 100 is complete control
Text: as §2, §3

[11] = test system: corn (Zea mays); assay: Test A postemergence corn; conditions: 0 to 100 scale, 0 is no effect, 100 is complete control
How it was run: as §4

[12] = test system: barnyardgrass (Echinochloa crus-galli); assay: Test A postemergence barnyardgrass; conditions: 0 to 100 scale, 0 is no effect, 100 is complete control
How it was run: as §4

[13] = test system: pigweed (Amaranthus retroflexus); assay: Test A postemergence pigweed; conditions: 0 to 100 scale, 0 is no effect, 100 is complete control
How it was run: as §4

[14] = test system: pigweed (Amaranthus retroflexus); assay: Test A preemergence pigweed; conditions: 0 to 100 scale, 0 no effect, 100 complete control
How it was run: as §4

[15] = test system: velvetleaf (Abutilon theophrasti); assay: Test A preemergence velvetleaf; conditions: 0 to 100 scale, 0 no effect, 100 complete control
Text: as §2, §3

[16] = test system: foxtail, giant (giant foxtail, Setaria faberii); assay: Test A preemergence foxtail, giant; conditions: 0 to 100 scale, 0 no effect, 100 complete control
How it was run: as §4

[17] = test system: barnyardgrass (Echinochloa crus-galli); assay: Test A preemergence barnyardgrass; conditions: 0 to 100 scale
How it was run: as §4

[18] = test system: foxtail, giant (giant foxtail, Setaria faberii); assay: Test A postemergence foxtail, giant; conditions: 0 to 100 scale, 0 is no effect, 100 is complete control
How it was run: as §4

[19] = test system: crabgrass, large (large crabgrass, Digitaria sanguinalis); assay: Test A preemergence crabgrass, large; conditions: 0 to 100 scale
Text: as §2, §3

[20] = test system: corn (Zea mays); assay: Test A preemergence corn; conditions: 0 to 100 scale
Text: as §2, §3

[21] = 125 g ai/ha, 0 no effect, 100 complete control
[22] = 500 g ai/ha, 0 is no effect, 100 is complete control

## O=C1NCCC(c2ccc(F)c(F)c2)C1C(=O)Nc1ccccc1C(F)(F)F (racemic) [Compound 6]
[1]
  Plant response rating: 0
[2]
  Plant response rating: 0
[3]; 125 g ai/ha
  Plant response rating, Morningglory: 0
[3]; 500 g ai/ha
  Plant response rating, Morningglory: 0
[4]; 125 g ai/ha
  Plant response rating, Crabgrass, Large: 50
[4]; 500 g ai/ha
  Plant response rating, Crabgrass, Large: 80
[5]
  Plant response rating: 60
[6]; 125 g ai/ha
  Plant response rating, Wheat: 0
[6]; 500 g ai/ha
  Plant response rating, Wheat: 0
[7]; 125 g ai/ha
  Wheat plant response rating: 0
[7]; 500 g ai/ha
  Wheat plant response rating: 0
[8]; 125 g ai/ha
  Morningglory plant response rating: 0
[8]; 500 g ai/ha
  Morningglory plant response rating: 0
[9]
  Plant response rating: 0
[10]; 125 g ai/ha
  Plant response rating, Velvetleaf: 0
[10]; 500 g ai/ha
  Plant response rating, Velvetleaf: 0
[11]; 125 g ai/ha
  Plant response rating, Corn: 0
[11]; 500 g ai/ha
  Plant response rating, Corn: 0
[12]; 125 g ai/ha
  Plant response rating, Barnyardgrass: 0
[12]; 500 g ai/ha
  Plant response rating, Barnyardgrass: 50
[13]; 125 g ai/ha
  Plant response rating, Pigweed: 0
[13]; 500 g ai/ha
  Plant response rating, Pigweed: 30
[14]; 125 g ai/ha
  Pigweed plant response rating: 0
[14]; 500 g ai/ha
  Pigweed plant response rating: 0
[15]; 125 g ai/ha
  Velvetleaf plant response rating: 0
[15]; 500 g ai/ha
  Velvetleaf plant response rating: 0
[16]; 125 g ai/ha
  Foxtail, Giant plant response rating: 60
[16]; 500 g ai/ha
  Foxtail, Giant plant response rating: 90
[17]; [21]
  Barnyardgrass plant response rating: 60
[17]; [22]
  Plant response rating, Barnyardgrass: 80
[18]; 125 g ai/ha
  Plant response rating, Foxtail, Giant: 30
[18]; 500 g ai/ha
  Plant response rating, Foxtail, Giant: 70
[19]; [21]
  Crabgrass, Large plant response rating: 90
[19]; [22]
  Plant response rating, Crabgrass, Large: 90
[20]; [21]
  Corn plant response rating: 0
[20]; [22]
  Plant response rating, Corn: 0
